# Experimental data taken from patent US10214527B2, “Triazolopyridine inhibitors of myeloperoxidase” (priority 2015, dated 2019).
# What was measured:
# [1] = molecular target: T1, myeloperoxidase (MPO) (Homo sapiens (Human), UniProt P05164); test: MPO chlorination assay (APF assay); format: biochemical
# [2] = molecular target: T1, myeloperoxidase (MPO); test: MPO peroxidation assay (Amplex Red assay); format: biochemical
# [3] = MPO chlorination, potency range class, read-out: APF Assay IC50 value
# [4] = MPO peroxidation, potency range class, read-out: Amplex Red Assay IC50 value
# T1 sequence (P05164 49-745): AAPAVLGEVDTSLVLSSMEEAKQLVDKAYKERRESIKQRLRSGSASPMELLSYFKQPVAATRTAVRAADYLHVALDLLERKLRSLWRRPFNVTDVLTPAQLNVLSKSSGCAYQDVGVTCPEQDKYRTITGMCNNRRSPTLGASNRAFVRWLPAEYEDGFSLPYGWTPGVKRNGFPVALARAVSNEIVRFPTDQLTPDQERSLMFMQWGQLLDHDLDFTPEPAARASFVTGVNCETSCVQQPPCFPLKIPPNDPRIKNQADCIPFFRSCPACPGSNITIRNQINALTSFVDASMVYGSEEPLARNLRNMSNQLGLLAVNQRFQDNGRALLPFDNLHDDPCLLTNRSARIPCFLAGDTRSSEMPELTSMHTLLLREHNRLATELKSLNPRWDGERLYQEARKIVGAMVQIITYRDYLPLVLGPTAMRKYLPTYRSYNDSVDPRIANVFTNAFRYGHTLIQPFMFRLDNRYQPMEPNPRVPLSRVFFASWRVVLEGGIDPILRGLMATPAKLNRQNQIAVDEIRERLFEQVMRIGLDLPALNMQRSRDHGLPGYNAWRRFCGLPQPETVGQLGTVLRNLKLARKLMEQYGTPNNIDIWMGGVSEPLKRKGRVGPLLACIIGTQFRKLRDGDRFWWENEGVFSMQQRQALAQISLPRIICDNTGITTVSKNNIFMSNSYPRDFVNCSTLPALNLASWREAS
"IC50 [1, 3]","IC50 [2, 4]",SMILES,further results
101 to 999 nM,101 to 999 nM,"Nc1cc(Cc2ccc(-n3cccn3)cc2)c2nn[nH]c2n1 [Example 11, 7-(4-(1H-pyrazol-1-yl)benzyl)-3H-[1,2,3]triazolo [4,5-b]pyridin-5-amine]",
,,"CS(=O)(=O)c1cccc(Cc2cc(N)nc3[nH]nnc23)c1 [Example 13, 7-(3-(methylsulfon-yl)benzyl)-3H-[1,2,3]triazolo [4,5-b]pyridin-5-amine]",IC50 [1]: 1000 to 10000 nM; IC50 [2]: 1000 to 10000 nM
1 to 100 nM,101 to 999 nM,"Nc1cc(Cc2cccc(-c3cccc(F)c3)c2)c2nn[nH]c2n1 [Example 14, 7-((3′-fluoro-[1,1′-biphenyl]-3-yl)methyl)-3H-[1,2,3]triazolo [4,5-b] pyridin-5-amine]",
1 to 100 nM,1 to 100 nM,"Nc1cc(Cc2cccc(Cc3ccccc3)c2)c2nn[nH]c2n1 [Example 16, 7-(3-benzylbenzyl)-3H-[1,2,3]triazolo [4,5-b]pyridin-5-amine]",
1 to 100 nM,1 to 100 nM,"Nc1cc(Cc2cc(Cl)ccc2F)c2nn[nH]c2n1 [Example 21, 7-(5-chloro-2-fluorobenzyl)-3H-[1,2,3] triazolo[4,5-b]pyridin-5-amine]",
101 to 999 nM,101 to 999 nM,"Nc1cc(Cc2ccc(F)cc2)c2nn[nH]c2n1 [Example 28, 7-(4-fluorobenzyl)-3H-[1,2,3]triazolo [4,5-b]pyridin-5-amine]",
101 to 999 nM,101 to 999 nM,"Nc1cc(Cc2cccc(OC(F)(F)F)c2)c2nn[nH]c2n1 [Example 29, 7-(3-(trifluorometh-oxy)benzyl)-3H-[1,2,3]triazolo [4,5-b]pyridin-5-amine]",
,101 to 999 nM,"Cc1nc(-c2ccc(Cc3cc(N)nc4[nH]nnc34)cc2)no1 [Example 32, 7-(4-(5-methyl-1,2,4-oxadiazol-3-yl)benzyl)-3H-[1,2,3]triazolo [4,5-b] pyridin-5-amine]",
,1 to 100 nM,"Nc1cc(Cc2c(F)cccc2F)c2nn[nH]c2n1 [Example 33, 7-(2,6-difluorobenzyl)-3H-[1,2,3] triazolo[4,5-b]pyridin-5-amine]",
101 to 999 nM,101 to 999 nM,"Nc1cc(Cc2ccc(F)c(F)c2)c2nn[nH]c2n1 [Example 34, 7-(3,4-difluorobenzyl)-3H-[1,2,3] triazolo[4,5-b]pyridin-5-amine]",
,101 to 999 nM,CC(C)(C)c1ccc(Cc2cc(N)nc3[nH]nnc23)cc1 [Example 35],
,1000 to 10000 nM,"Nc1cc(Cc2ccc(OC(F)(F)F)cc2)c2nn[nH]c2n1 [Example 36, 7-(4-(trifluorometh-oxy)benzyl)-3H-[1,2,3]triazolo [4,5-b]pyridin-5-amine]",
101 to 999 nM,101 to 999 nM,"Nc1cc(Cc2ccc(-c3ccccc3)cc2)c2nn[nH]c2n1 [Example 37, 7-([1,1′-biphenyl]-4-ylmethyl)-3H-[1,2,3]triazolo [4,5-b]pyridin-5-amine]",
,101 to 999 nM,"Nc1cc(Cc2ccccc2CS(=O)(=O)c2ccccc2)c2nn[nH]c2n1 [Example 38, 7-(2-((phenylsulfon-yl)methyl)benzyl)-3H-[1,2,3]triazolo [4,5-b]pyridin-5-amine]",
,101 to 999 nM,"Nc1cc(Cc2ccc(C(=O)c3ccccc3)cc2)c2nn[nH]c2n1 [Example 39, (4-((5-amino-3H-[1,2,3]triazolo [4,5-b]pyridin-7-yl)methyl)phenyl)(phenyl) methanone]",
101 to 999 nM,101 to 999 nM,"Nc1cc(Cc2cccc(C(=O)c3ccccc3)c2)c2nn[nH]c2n1 [Example 40, (3-((5-amino-3H-[1,2,3]triazolo [4,5-b]pyridin-7-yl)methyl)phenyl)(phenyl) methanone]",
,101 to 999 nM,"Nc1cc(Cc2ccc(-c3csnn3)cc2)c2nn[nH]c2n1 [Example 41, 7-(4-(1,2,3-thiadiazol-4-yl)benzyl)-3H-[1,2,3]triazolo [4,5-b]pyridin-5-amine]",

"IC50 [1, 3]","IC50 [2, 4]",SMILES,further results
,1 to 100 nM,"Nc1cc(Cc2cc(F)ccc2F)c2nn[nH]c2n1 [Example 42, 7-(2,5-difluorobenzyl)-3H-[1,2,3] triazolo[4,5-b]pyridin-5-amine]",
101 to 999 nM,101 to 999 nM,"Nc1cc(Cc2ccc(F)cc2F)c2nn[nH]c2n1 [Example 43, 7-(2,4-difluorobenzyl)-3H-[1,2,3] triazolo[4,5-b]pyridin-5-amine]",
101 to 999 nM,1 to 100 nM,"Nc1cc(Cc2cccc(F)c2F)c2nn[nH]c2n1 [Example 44, 7-(2,3-difluorobenzyl)-3H-[1,2,3] triazolo[4,5-b]pyridin-5-amine]",
,1 to 100 nM,"Nc1cc(Cc2cccc(Cl)c2F)c2nn[nH]c2n1 [Example 45, 7-(3-chloro-2-fluorobenzyl)-3H-[1,2,3] triazolo[4,5-b]pyridin-5-amine]",
,101 to 999 nM,"Nc1cc(Cc2cccc(C(=O)NCc3ccccc3)c2)c2nn[nH]c2n1 [Example 46, 3-((5-Amino-3H-[1,2,3]triazolo[4,5-b]pyridin-7-yl)methyl)-N-benzylbenzamide]",
101 to 999 nM,101 to 999 nM,"Nc1cc(Cc2cccc(C(=O)NCCc3ccccc3)c2)c2nn[nH]c2n1 [Example 47, 3-((5-Amino-3H-[1,2,3]triazolo[4,5-b]pyridin-7-yl)methyl)-N-phenethylbenzamide]",
,101 to 999 nM,"Nc1cc(Cc2cccc(OCc3ccccc3)c2)c2nn[nH]c2n1 [Example 49, 7-(3-(Benzyloxy)benzyl)-3H-[1,2,3]triazolo[4,5-b]pyridin-5-amine]",
,101 to 999 nM,"Nc1cc(Cc2cccc(-n3cccn3)c2)c2nn[nH]c2n1 [Example 52, 7-(3-(1H-pyrazol-1-yl)benzyl)-3H-[1,2,3]triazolo [4,5-b]pyridin-5-amine]",
,101 to 999 nM,"Cc1cc(C)n(-c2cccc(Cc3cc(N)nc4[nH]nnc34)c2)n1 [Example 53, 7-(3-(3,5-dimethyl-1H-pyrazol-1-yl)benzyl)-3H-[1,2,3]triazolo [4,5-b] pyridin-5-amine]",
,101 to 999 nM,"Cc1cccc(Cc2cc(N)nc3[nH]nnc23)n1 [Example 54, 7-((6-methylpyridin-2-yl)methyl)-3H-[1,2,3]triazolo [4,5-b]pyridin-5-amine]",
,101 to 999 nM,"COc1ccc(-c2cccc(Cc3cc(N)nc4[nH]nnc34)n2)cc1 [Example 55, 7-((6-(4-methoxyphenyl)pyridin-2-yl)methyl)-3H-[1,2,3]triazolo [4,5-b] pyridin-5-amine]",
,1 to 100 nM,"Nc1cc(Cc2cccc3c2ccn3Cc2ccccc2)c2nn[nH]c2n1 [Example 59, 7-((1-Benzyl-1H-indol-4-yl)methyl)-3H-[1,2,3]triazolo[4,5-b]pyridin-5-amine]",
,101 to 999 nM,"CCn1ccc2c(Cc3cc(N)nc4[nH]nnc34)cccc21 [Example 60, 7-((1-Ethyl-1H-indol-4-yl)methyl)-3H-[1,2,3]triazolo[4,5-b]pyridin-5-amine]",
,1 to 100 nM,"Nc1cc(Cc2cccc3c2ccn3Cc2cccc(-c3ccccc3)c2)c2nn[nH]c2n1 [Example 61, 7-((1-([1,1′-Biphenyl]-3-ylmethyl)-1H-indol-4-yl)methyl)-3H-[1,2,3]triazolo[4,5-b]pyridin-5-amine]",
,101 to 999 nM,"Cn1ncc2ccc(Cc3cc(N)nc4[nH]nnc34)cc21 [Example 67, 7-((1-Methyl-1H-indazol-6-yl)methyl)-3H-[1,2,3]triazolo[4,5-b]pyridin-5-amine]",
,101 to 999 nM,"Cn1ncc2cc(Cc3cc(N)nc4[nH]nnc34)ccc21 [Example 68, 7-((1-Methyl-1H-indazol-5-yl)methyl)-3H-[1,2,3]triazolo[4,5-b]pyridin-5-amine]",
